# Reference: PubChem BioAssay AID248 (DTP/NCI, 2004)
# “And” between values parts separate entries of the source, which are not always exact repeats. Equal entries are not always repeated. Toxic doses and inconclusive results are not listed.
# Test system: L1210 leukemia ip in BDF1 mice, survival T/C
# Experiment: NCI In Vivo Anticancer Drug Screen. Data for tumor model L1210 Leukemia (intraperitoneal) in B6D2F1 (BDF1) mice
# Conditions: endpoint: mean survival time, higher = longer survival
# How it was run: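 Read-out is survival time, reported as the treated-group measurement over the vehicle-control measurement.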
# [1] = dose: 100.0 mg/kg/injection, schedule: Q04DX003 (ip), vehicle: saline with Tween-80
# [2] = dose: 200.0 mg/kg/injection, schedule: Q04DX003 (ip), vehicle: saline with Tween-80
# [3] = dose: 400.0 mg/kg/injection, schedule: Q04DX002 (ip), vehicle: saline with Tween-80
# [4] = dose: 400.0 mg/kg/injection, schedule: Q04DX003 (ip), vehicle: saline with Tween-80
# [5] = dose: 50.0 mg/kg/injection, schedule: Q01DX001 (ip), vehicle: saline
# [6] = dose: 100.0 mg/kg/injection, schedule: Q01DX001 (ip), vehicle: saline
# [7] = dose: 200.0 mg/kg/injection, schedule: Q01DX001 (ip), vehicle: saline
# [8] = dose: 100.0 mg/kg/injection, schedule: Q01DX009 (ip), vehicle: Klucel (hydroxypropylcellulose) (HPC)
# [9] = dose: 200.0 mg/kg/injection, schedule: Q01DX009 (ip), vehicle: Klucel (hydroxypropylcellulose) (HPC)
# [10] = dose: 400.0 mg/kg/injection, schedule: Q01DX009 (ip), vehicle: Klucel (hydroxypropylcellulose) (HPC)
# [11] = dose: 100.0 mg/kg/injection, schedule: Q01DX009 (ip), vehicle: saline
# [12] = dose: 200.0 mg/kg/injection, schedule: Q01DX009 (ip), vehicle: saline
# [13] = dose: 400.0 mg/kg/injection, schedule: Q01DX001 (ip), vehicle: saline
smiles,measurement,setting,value
CCCCC(CC)CN(CC(CC)CCCC)c1nc(Cl)nc(N(CC(CC)CCCC)CC(CC)CCCC)n1 (stereo unspecified),T/C,"dose: 25.6 mg/kg/injection, schedule: Q04DX002 (ip), vehicle: saline with Tween-80",91 % of control
same,T/C,"dose: 64.0 mg/kg/injection, schedule: Q04DX002 (ip), vehicle: saline with Tween-80",97 % of control
same,T/C,[1],92 % of control
same,T/C,"dose: 160.0 mg/kg/injection, schedule: Q04DX002 (ip), vehicle: saline with Tween-80",91 % of control
same,T/C,[2],94 % of control
same,T/C,[3],91 % of control
same,T/C,[4],92 % of control
CC(=O)OCC1OC(n2cnc3c(=S)nc(N)[nH]c32)C(OC(C)=O)C1OC(C)=O (stereo unspecified),T/C,"dose: 1.6 mg/kg/injection, schedule: Q01DX Z (ip), vehicle: carboxymethylcellulose (CMC)",106 % of control
same,T/C,"dose: 5.0 mg/kg/injection, schedule: Q01DX Z (ip), vehicle: carboxymethylcellulose (CMC)",162 % of control
same,T/C,"dose: 6.25 mg/kg/injection, schedule: Q01DX Z (oral), vehicle: other",94 % of control
same,T/C,"dose: 7.5 mg/kg/injection, schedule: Q01DX Z (ip), vehicle: carboxymethylcellulose (CMC)",162 % of control
same,T/C,"dose: 11.2 mg/kg/injection, schedule: Q01DX Z (ip), vehicle: carboxymethylcellulose (CMC)",176 % of control
same,T/C,"dose: 12.5 mg/kg/injection, schedule: Q01DX Z (oral), vehicle: other",106 % of control
same,T/C,"dose: 25.0 mg/kg/injection, schedule: Q01DX Z (oral), vehicle: other",105 % of control
same,T/C,"dose: 44.0 mg/kg/injection, schedule: Q01DX Z (ip), vehicle: carboxymethylcellulose (CMC)",86 % of control
same,T/C,[5],100 % of control
same,T/C,"dose: 50.0 mg/kg/injection, schedule: Q01DX Z (oral), vehicle: other",122 % of control
same,T/C,[6],123 % of control
same,T/C,"dose: 150.0 mg/kg/injection, schedule: Q01DX015 (oral), vehicle: other",120 % of control
same,T/C,[7],103 % of control
same,T/C,"dose: 200.0 mg/kg/injection, schedule: Q01DX015 (oral), vehicle: other",97 % of control
same,T/C,"dose: 250.0 mg/kg/injection, schedule: Q01DX015 (oral), vehicle: other",94 % of control
Cc1ccc2ccc3ccc(C)nc3c2n1,T/C,"dose: 12.5 mg/kg/injection, schedule: Q04DX003 (ip), vehicle: Klucel (hydroxypropylcellulose) (HPC)",99 % of control
same,T/C,"dose: 25.0 mg/kg/injection, schedule: Q04DX003 (ip), vehicle: Klucel (hydroxypropylcellulose) (HPC)",97 % of control
same,T/C,"dose: 50.0 mg/kg/injection, schedule: Q04DX003 (ip), vehicle: Klucel (hydroxypropylcellulose) (HPC)",101 % of control
CC(Cc1ccccc1)Cc1ccccc1,T/C,[1],96 % of control
same,T/C,[2],88 % of control
same,T/C,[4],98 % of control
CC(=O)N(C)c1ccc(NC(=O)Nc2cc([N+](=O)[O-])ccc2F)cc1,T/C,"dose: 100.0 mg/kg/injection, schedule: Q04DX003 (ip), vehicle: Klucel (hydroxypropylcellulose) (HPC)",91 % of control
same,T/C,"dose: 200.0 mg/kg/injection, schedule: Q04DX003 (ip), vehicle: Klucel (hydroxypropylcellulose) (HPC)",97 % of control
same,T/C,"dose: 400.0 mg/kg/injection, schedule: Q04DX003 (ip), vehicle: Klucel (hydroxypropylcellulose) (HPC)",92 % of control
CCN(CCCCO)CCc1c[nH]c2ccc(OC)cc12,T/C,"dose: 4.68 mg/kg/injection, schedule: Q01DX009 (ip), vehicle: saline",98 % of control
same,T/C,"dose: 9.37 mg/kg/injection, schedule: Q01DX009 (ip), vehicle: saline",106 % of control
same,T/C,"dose: 18.75 mg/kg/injection, schedule: Q01DX009 (ip), vehicle: saline",96 % of control
same,T/C,"dose: 18.75 mg/kg/injection, schedule: Q04DX003 (ip), vehicle: saline",112 % of control
same,T/C,"dose: 37.5 mg/kg/injection, schedule: Q01DX009 (ip), vehicle: saline",104 % of control
same,T/C,"dose: 37.5 mg/kg/injection, schedule: Q04DX003 (ip), vehicle: saline",101 % of control
same,T/C,"dose: 75.0 mg/kg/injection, schedule: Q01DX009 (ip), vehicle: saline",95 % of control
same,T/C,"dose: 75.0 mg/kg/injection, schedule: Q04DX003 (ip), vehicle: saline",106 % of control
same,T/C,"dose: 150.0 mg/kg/injection, schedule: Q01DX009 (ip), vehicle: saline",109 % of control
S=C1SC2(CCCCCC2)NC2=C1CCCCC2,T/C,"dose: 100.0 mg/kg/injection, schedule: Q04DX002 (ip), vehicle: saline with Tween-80",103 % of control
same,T/C,"dose: 200.0 mg/kg/injection, schedule: Q04DX002 (ip), vehicle: saline with Tween-80",89 % of control
same,T/C,[3],89 % of control
NC1=NC(c2ccccc2)N(c2ccccc2Cl)C(N)=N1 (stereo unspecified),T/C,"dose: 75.0 mg/kg/injection, schedule: Q01DX001 (ip), vehicle: Klucel (hydroxypropylcellulose) (HPC)",97 % of control
same,T/C,"dose: 150.0 mg/kg/injection, schedule: Q01DX001 (ip), vehicle: Klucel (hydroxypropylcellulose) (HPC)",94 % of control
c1ccc(P(CCP(CCP(c2ccccc2)c2ccccc2)CCP(c2ccccc2)c2ccccc2)c2ccccc2)cc1,T/C,[8],89 % of control
same,T/C,[9],89 % of control
same,T/C,[10],88 % of control
CNc1cc(N2CCCC2)ccn1,T/C,"dose: 5.0 mg/kg/injection, schedule: Q01DX001 (ip), vehicle: saline",104 % of control
same,T/C,"dose: 10.0 mg/kg/injection, schedule: Q01DX001 (ip), vehicle: saline",110 % of control
O=C(O)C(=O)/C=C/c1cccc([N+](=O)[O-])c1,T/C,[6],96 % of control
same,T/C,[11],106 % of control
same,T/C,[7],96 % of control
same,T/C,[12],95 % of control
same,T/C,[13],102 % of control
CC(=O)COc1cccc([N+](=O)[O-])c1,T/C,[8],92 % of control
same,T/C,[9],90 % of control
same,T/C,[10],90 % of control
N#CCC(=O)N1CCCC1,T/C,[5],95 % of control
same,T/C,[6],104 % of control
same,T/C,[7],98 % of control
same,T/C,[13],95 % of control
COC(=O)CCC(OC(C)=O)C(=O)c1ccccc1 (stereo unspecified),T/C,"dose: 50.0 mg/kg/injection, schedule: Q01DX009 (ip), vehicle: saline with Tween-80",91 % of control
same,T/C,"dose: 100.0 mg/kg/injection, schedule: Q01DX009 (ip), vehicle: saline with Tween-80",94 % of control
same,T/C,"dose: 200.0 mg/kg/injection, schedule: Q01DX009 (ip), vehicle: saline with Tween-80",88 % of control
CCN(CC)C(=O)c1ccncc1,T/C,"dose: 50.0 mg/kg/injection, schedule: Q01DX009 (ip), vehicle: saline",101 % of control
same,T/C,[11],106 % of control and 88 % of control
same,T/C,[12],97 % of control
same,T/C,"dose: 400.0 mg/kg/injection, schedule: Q01DX009 (ip), vehicle: saline",111 % of control
O=[N+]([O-])c1ccc(S)c(Cl)c1,T/C,"dose: 12.5 mg/kg/injection, schedule: Q01DX009 (ip), vehicle: Klucel (hydroxypropylcellulose) (HPC)",104 % of control
same,T/C,"dose: 25.0 mg/kg/injection, schedule: Q01DX009 (ip), vehicle: Klucel (hydroxypropylcellulose) (HPC)",104 % of control
